We go through 23 molecules from US10323041B2, “Bicyclic derivatives, a process for their preparation and pharmaceutical compositions containing them” (LES LABORATOIRES SERVIER, priority 2015, dated 2019).

Chain of Mcl-1 protein (Q07820 whole entry): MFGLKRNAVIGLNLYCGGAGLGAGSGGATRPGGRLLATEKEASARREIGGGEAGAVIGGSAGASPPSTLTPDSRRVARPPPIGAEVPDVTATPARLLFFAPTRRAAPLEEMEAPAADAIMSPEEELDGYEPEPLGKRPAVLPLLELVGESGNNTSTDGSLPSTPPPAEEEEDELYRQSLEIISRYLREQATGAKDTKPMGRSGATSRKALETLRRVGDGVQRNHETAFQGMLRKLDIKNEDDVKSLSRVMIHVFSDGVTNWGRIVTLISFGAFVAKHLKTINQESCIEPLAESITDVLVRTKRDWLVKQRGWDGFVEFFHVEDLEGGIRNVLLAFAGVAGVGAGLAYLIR

The assay deals with Mcl-1 protein (Homo sapiens, UniProt Q07820). In words: Inhibition of Mcl-1 by the fluorescence polarisation technique. The format is binding. The note with it: Method 1 (not underlined) or Method 2 (underlined); underlining not visible; first value where cell prints two; read-out: IC50 (M) Mcl-1 FP. Here is the method:
The relative binding potency of each compound was determined via fluorescence Polarisation (FP). The method utilised a Fluorescein labelled ligand Fluorescein-βAla-Ahx-[A-REIGAQLRRMADDLNAQY (SEQ ID NO: 1)]-OH; mw 2,765) which binds to the Mcl-1 protein (such that corresponds to the UniProtKB® primary accession number: Q07820) leading to an increased anisotropy measured in milli-polarisation (mP) units using a reader. The addition of a compound which binds competitively to the same site as the ligand will result in a greater proportion of unbound ligand in the system indicated by a decrease in mP units.
Method 1: An 11 point serial dilution of each compound was prepared in DMSO and 2 μl transferred into flat bottomed, low binding, 384-well plate (final DMSO concentration 5%). 38 μl of buffer (10 mM 4-(2-hydroxyethyl)-1-piperazineethanesulfonic acid [HEPES], 150 mM NaCl, 0.05% Tween 20, pH 7.4), containing the Fluorescein labelled ligand (final concentration 1 nM) and Mcl-1 protein (final concentration 5 nM) was then added.
(§1) Assay plates were incubated ˜2 hours at room temperature before FP was measured on a […] Synergy2 reader (Ex. 528 nm, Em. 640 nm, Cut off 510 nm) and mP units calculated. The binding of increasing doses of test compound was expressed as a percentage reduction in mP compared to a window established between ‘5% DMSO only’ and ‘100% inhibition’ controls. 11-point dose response curves were plotted with XL-Fit software using a 4-Parameter Logistic Model (Sigmoidal Dose-Response Model) and the inhibitory concentrations that gave a 50% reduction in mP (IC50) were determined. Results obtained using Method 1 are presented in Table 1 below; IC50 of Mcl-1 inhibition obtained using Method 1 are not underlined.
Method 2: An 11 point serial dilution of each compound was prepared in DMSO and 2 μl transferred into flat bottomed, low binding, 384-well plate (final DMSO concentration 5%). 38 μl of buffer (20 mM Na2HPO4, 1 mM EDTA, 50 mM NaCl, pH 7.4), containing the Fluorescein labelled ligand (final concentration 10 nM) and Mcl-1 protein (final concentration 10 nM) was then added.
as §1, with “inhibition’ controls (50 μM unlabelled ligand).” for “inhibition’ controls.”, “Method 2” for “Method 1”, “are” for “are not”
Background: Polarisation of emitted light reports the rotation of a fluorescent probe.
For `CCc1c(-c2cccc3ccccc23)c2c(N[C@H](Cc3ccccc3)C(=O)O)ncnc2n1Cc1ccccc1` (single isomer, unassigned) [Example 12, N-[7-benzyl-6-ethyl-5-(naphthalen-1-yl)-7H-pyrrolo[2,3-d]pyrimidin-4-yl]-D-phenylalanine], the concentration for half-maximal inhibition (IC50) (in general, the concentration needed to halve the response being measured) stood at 5.6e-07 M.

`CCc1c(-c2cccc3ccccc23)c2c(N[C@H](Cc3ccccc3)C(=O)O)ncnc2n1Cc1ccccc1` (single isomer, unassigned) [Example 13, N-[7-benzyl-6-ethyl-5-(naphthalen-1-yl)-7H-pyrrolo[2,3-d]pyrimidin-4-yl]-D-phenylalanine]: the IC50 was 6.6e-07 M.

In the case of `CCc1c(-c2cccc3ccccc23)c2c(N[C@H](Cc3ccccc3)C(=O)O)ncnc2n1CCOc1cccc2ccccc12` (single isomer, unassigned) [Example 14, N-{6-ethyl-5-(naphthalen-1-yl)-7-[2-(naphthalen-1-yloxy)ethyl]-7H-pyrrolo[2,3-d]pyrimidin-4-yl}-D-phenylalanine], the IC50 amounted to 1.2e-05 M.

Consider `CCc1c(-c2cccc3ccccc23)c2c(N[C@H](Cc3ccccc3)C(=O)O)ncnc2n1CCOc1cccc2ccccc12` (single isomer, unassigned) [Example 15, N-{6-ethyl-5-(naphthalen-1-yl)-7-[2-(naphthalen-1-yloxy)ethyl]-7H-pyrrolo[2,3-d]pyrimidin-4-yl}-D-phenylalanine], for which the IC50 stood at 7.3e-06 M.

For the molecule `CCc1c(-c2cccc3ccccc23)c2c(N[C@H](Cc3ccccc3)C(=O)O)ncnc2n1CCc1ccccc1` (single isomer, unassigned) [Example 16, N-[6-ethyl-5-(naphthalen-1-yl)-7-(2-phenylethyl)-7H-pyrrolo[2,3-d]pyrimidin-4-yl]-D-phenylalanine], the 50% inhibitory concentration (IC50) was 1.8e-06 M.

On to `CCc1c(-c2cccc3ccccc23)c2c(N[C@H](Cc3ccccc3)C(=O)O)ncnc2n1CCc1ccccc1` (single isomer, unassigned) [Example 17, N-[6-ethyl-5-(naphthalen-1-yl)-7-(2-phenylethyl)-7H-pyrrolo[2,3-d]pyrimidin-4-yl]-D-phenylalanine], for which the IC50 amounted to 3.8e-06 M.

As to `CCc1c(-c2cccc3ccccc23)c2c(N[C@H](Cc3ccccc3)C(=O)O)ncnc2n1CCCc1ccccc1` (single isomer, unassigned) [Example 18, N-[6-ethyl-5-(naphthalen-1-yl)-7-(3-phenylpropyl)-7H-pyrrolo[2,3-d]pyrimidin-4-yl]-D-phenylalanine], the IC50 was 3.1e-06 M.

Turning to `CCc1c(-c2cccc3ccccc23)c2c(N[C@H](Cc3ccccc3)C(=O)O)ncnc2n1CCCc1ccccc1` (single isomer, unassigned) [Example 19, N-[6-ethyl-5-(naphthalen-1-yl)-7-(3-phenylpropyl)-7H-pyrrolo[2,3-d]pyrimidin-4-yl]-D-phenylalanine], the IC50 worked out at 3.3e-06 M.

Consider `C=CCn1c(CC)c(-c2cccc(Cl)c2C)c2c(NC(Cc3ccccc3)C(=O)O)ncnc21` (single isomer, unassigned) [Example 24, N-[(5Ra)-5-(3-chloro-2-methylphenyl)-6-ethyl-7-(prop-2-en-1-yl)-7H-pyrrolo[2,3-d]pyrimidin-4-yl]-D-phenylalanine], for which the IC50 is 1.8e-05 M.

Take `C=CCn1c(CC)c(-c2cccc(Cl)c2C)c2c(NC(Cc3ccccc3)C(=O)O)ncnc21` (single isomer, unassigned) [Example 25, N-[(5Sa)-5-(3-chloro-2-methylphenyl)-6-ethyl-7-(prop-2-en-1-yl)-7H-pyrrolo[2,3-d]pyrimidin-4-yl]-D-phenylalanine]: the IC50 was 9.1e-06 M.

For the molecule `CC#CCn1c(CC)c(-c2cccc(Cl)c2C)c2c(NC(Cc3ccccc3)C(=O)O)ncnc21` (single isomer, unassigned) [Example 26, N-[7-(but-2-yn-1-yl)-(5Ra)-5-(3-chloro-2-methylphenyl)-6-ethyl-7H-pyrrolo[2,3-d]pyrimidin-4-yl]-D-phenylalanine], the 50% inhibitory concentration (IC50) was 5.9e-06 M.

Regarding `CC#CCn1c(CC)c(-c2cccc(Cl)c2C)c2c(NC(Cc3ccccc3)C(=O)O)ncnc21` (single isomer, unassigned) [Example 27, N-[7-(but-2-yn-1-yl)-(5Sa)-5-(3-chloro-2-methylphenyl)-6-ethyl-7H-pyrrolo[2,3-d]pyrimidin-4-yl]-D-phenylalanine], the IC50 was found to be 3.3e-07 M.

In the case of `CCc1c(-c2cccc(Cl)c2C)c2c(NC(Cc3ccccc3)C(=O)O)ncnc2n1CCC1CCCC1` (single isomer, unassigned) [Example 30, N-[(5Ra)-5-(3-chloro-2-methylphenyl)-7-(2-cyclopentylethyl)-6-ethyl-7H-pyrrolo[2,3-d]pyrimidin-4-yl]-D-phenylalanine], the IC50 was determined as 6.4e-06 M.

With `CCc1c(-c2cccc(Cl)c2C)c2c(NC(Cc3ccccc3)C(=O)O)ncnc2n1CCC1CCCC1` (single isomer, unassigned) [Example 31, N-[(5Sa)-5-(3-chloro-2-methylphenyl)-7-(2-cyclopentylethyl)-6-ethyl-7H-pyrrolo[2,3-d]pyrimidin-4-yl]-D-phenylalanine], the half-maximal inhibitory concentration (IC50) was 7.9e-07 M.

In the case of `CCc1c(-c2cccc(Cl)c2C)c2c(NC(Cc3ccccc3)C(=O)O)ncnc2n1Cc1cccc2ccccc12` (single isomer, unassigned) [Example 32, N-[(5Ra)-5-(3-chloro-2-methylphenyl)-6-ethyl-7-(naphthalen-1-ylmethyl)-7H-pyrrolo[2,3-d]pyrimidin-4-yl]-D-phenylalanine], the 50% inhibitory concentration (IC50) was 3.5e-06 M.

With `CCc1c(-c2cccc(Cl)c2C)c2c(NC(Cc3ccccc3)C(=O)O)ncnc2n1Cc1cccc2ccccc12` (single isomer, unassigned) [Example 33, N-[(5Sa)-5-(3-chloro-2-methylphenyl)-6-ethyl-7-(naphthalen-1-ylmethyl)-7H-pyrrolo[2,3-d]pyrimidin-4-yl]-D-phenylalanine], the IC50 stood at 2.6e-07 M.

Regarding `CCc1c(-c2cccc(Cl)c2C)c2c(NC(Cc3ccccc3)C(=O)O)ncnc2n1Cc1ccc(OC)cc1` (single isomer, unassigned) [Example 34, N-[(5Ra)-5-(3-chloro-2-methylphenyl)-6-ethyl-7-(4-methoxybenzyl)-7H-pyrrolo[2,3-d]pyrimidin-4-yl]-D-phenylalanine], the IC50 was found to be 6.4e-06 M.

With `CCc1c(-c2cccc(Cl)c2C)c2c(NC(Cc3ccccc3)C(=O)O)ncnc2n1Cc1ccc(OC)cc1` (single isomer, unassigned) [Example 35, N-[(5Sa)-5-(3-chloro-2-methylphenyl)-6-ethyl-7-(4-methoxybenzyl)-7H-pyrrolo[2,3-d]pyrimidin-4-yl]-D-phenylalanine], the IC50 was 2.9e-07 M.

As to `CCc1c(-c2cccc(Cl)c2C)c2c(NC(Cc3ccccc3)C(=O)O)ncnc2n1Cc1ccccc1` (single isomer, unassigned) [Example 36, N-[7-benzyl-(5Ra)-5-(3-chloro-2-methylphenyl)-6-ethyl-7H-pyrrolo[2,3-d]pyrimidin-4-yl]-D-phenylalanine], the 50% inhibitory concentration (IC50) is 6.5e-06 M.

Consider `CCc1c(-c2cccc(Cl)c2C)c2c(NC(Cc3ccccc3)C(=O)O)ncnc2n1Cc1ccccc1` (single isomer, unassigned) [Example 37, N-[7-benzyl-(5Sa)-5-(3-chloro-2-methylphenyl)-6-ethyl-7H-pyrrolo[2,3-d]pyrimidin-4-yl]-D-phenylalanine], for which the half-maximal inhibitory concentration (IC50) was 5.3e-07 M.

In the case of `C=CCCn1c(Br)c(-c2cccc(Cl)c2C)c2c(NC(Cc3ccccc3)C(=O)O)ncnc21` (single isomer, unassigned) [Example 41, N-[6-bromo-7-(but-3-en-1-yl)-(5Ra)-5-(3-chloro-2-methylphenyl)-7H-pyrrolo[2,3-d]pyrimidin-4-yl]-D-phenylalanine], the half-inhibitory concentration (IC50) turned out to be 1.3e-05 M.

On to `C=CCCn1c(Br)c(-c2cccc(Cl)c2C)c2c(NC(Cc3ccccc3)C(=O)O)ncnc21` (single isomer, unassigned) [Example 42, N-[6-bromo-7-(but-3-en-1-yl)-(5Sa)-5-(3-chloro-2-methylphenyl)-7H-pyrrolo[2,3-d]pyrimidin-4-yl]-D-phenylalanine], for which the IC50 came out at 4.5e-07 M.

As to `Cc1c(Cl)cccc1-c1c2n(c3ncnc(NC(Cc4ccccc4)C(=O)O)c13)CCCC2` (single isomer, unassigned) [Example 47, N-[(5Ra)-5-(3-chloro-2-methylphenyl)-6,7,8,9-tetrahydropyrimido[5,4-b]indolizin-4-yl]-D-phenylalanine], the IC50 turned out to be 1.1e-05 M.
